# Reference: PMC4712933, “Development of Follicle-Stimulating Hormone Receptor Binding Probes to Image Ovarian Xenografts” (Journal of biotechnology & biomaterials, 2015)
# pEC50: −log10 of the molar value. Where a SMILES comes first, the peptide text is derived from it. The star is where a group is joined. 5FAM = O=C1OC2(c3ccc(O)cc3Oc3cc(O)ccc32)c2ccc(C(=O)*)cc21
# How the values were obtained:
# [1] = tested on: FSHR-rich Sertoli cells; conditions: FSHR-rich Sertoli cells from Bovine Calf testes; ref 29 (Lee et al); read-out: EC50, radio-ligand binding assay; cited from earlier work
# [2] = target: T1, FSHR on OVCAR-3 cells (Homo sapiens, UniProt P23945); experiment: Flow cytometry binding of BI-10^FAM to OVCAR-3 cells
# T1 construct: endogenous in cells; host or cells: OVCAR-3 cells
# T1 sequence (P23945 18-695): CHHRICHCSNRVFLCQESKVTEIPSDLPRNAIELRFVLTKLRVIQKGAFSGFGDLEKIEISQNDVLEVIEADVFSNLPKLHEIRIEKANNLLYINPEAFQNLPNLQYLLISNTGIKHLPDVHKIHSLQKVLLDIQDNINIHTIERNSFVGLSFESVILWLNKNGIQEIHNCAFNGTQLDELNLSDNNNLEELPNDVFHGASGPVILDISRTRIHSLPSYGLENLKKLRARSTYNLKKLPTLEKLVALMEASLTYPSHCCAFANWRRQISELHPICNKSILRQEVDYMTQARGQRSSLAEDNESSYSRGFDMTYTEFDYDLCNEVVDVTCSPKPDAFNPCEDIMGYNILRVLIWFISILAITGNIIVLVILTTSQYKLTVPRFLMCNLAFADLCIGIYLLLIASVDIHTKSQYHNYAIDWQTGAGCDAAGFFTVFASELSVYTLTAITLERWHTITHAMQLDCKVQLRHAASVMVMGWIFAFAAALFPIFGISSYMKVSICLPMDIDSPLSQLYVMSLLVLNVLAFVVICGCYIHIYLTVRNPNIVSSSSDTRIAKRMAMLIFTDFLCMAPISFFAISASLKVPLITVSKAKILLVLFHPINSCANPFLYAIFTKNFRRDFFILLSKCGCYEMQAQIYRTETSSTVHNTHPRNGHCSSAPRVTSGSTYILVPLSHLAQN
# Description: OVCAR-3 cells (generously provided by Dr. Mellisa Fishell of Indiana University School of Medicine) were chosen for in vitro binding experiment due to its high level of FSHR expression. For the first 2–3 passages, the cells were plated in […] flasks using RPMI medium (supplemented with 5 μM Insulin (Sigma), 20% FBS (Hyclone), Sodium private (GIBCO), and Pen Strep (GIBCO)), and placed in an incubator (5% CO2 at a temperature of 37°C incubator) to maintain viability. For peptide binding experiments, cells were plated in six-well plates with the medium and environment conditions as previously described. Medium was changed every 2–3 days until cells reached more than 90% confluency. […] These samples were ready for imaging within the flow cytometer. […]
# Each sample of OVCAR-3 cells was placed within the flow cytometer (Beckman Coulter FC500) and the FITC fluorescent intensity from the BI-10^FAM peptide bound to the OVCAR-3 cells were acquired. A TOPO-3 dye (Sigma) in 1 nM concentration was used to acquire the fluorescence from only viable cells in a two-color flow cytometry assay. Ten thousand cells were counted and the fluorescence measured in each sample. […] The EC50 value (binding affinity) and receptor saturation intensity were calculated using a nonlinear regression analysis using GraphPad Prism fitting algorithm (GraphPad Software, Inc.). […]
# [3] = tested on: FSHR; conditions: cited from earlier work
# Source text: FSHR belongs to G protein-coupled receptor and consists of a transmembrane and an extracellular domain, where the former is characterized by a seven helical repeats and the latter by multiple leucine-rich repeats. FSHR is expressed on normal ovarian epithelium, e.g., the fallopian tubal epithelium, and shares about 70% transmembrane domain sequence with other G protein-coupled receptors, such as L ...
# [4] = tested on: FSHR; conditions: low doses; cited from earlier work
# Source text: Their small effective hydrodynamic diameter, high washout rates, and rapid renal filtration are highly valued for in vivo imaging, where an optimal tumor-to-reference tissue ratio (TRR) can be quickly reached. This was de ...
Compound,pEC50 [1],"binding to FSHR, in words ([2]; BI-10 binding curves)","binding to FSHR, in words ([3]; functional radio ligand receptor assay, synthetic BI-10)","inhibition of FSH-stimulated estradiol and cAMP synthesis, in words ([3]; synthetic BI-10 peptide, high concentrations)","pEC50 ([2]; OVCAR-3 cells, BI-10^FAM, 30 min incubation, 37°C incubator, 1.0-500 μM, wash with PBS, 5 mM EDTA detachment, median FITC fluorescence, flow cytometry, TOPO-3 viable gate, 10,000 cells, nonlinear regression, R^2=0.93, average of three measurements (Figure 1: n=5), read-out: EC50 (binding affinity, dose response curve))",physiologic effects [4]
TENLEPNGEGNH2 [BI-10],~3.52,highly specific but low in affinity,specifically binds to FSHR,inhibits FSH-stimulated estradiol and secondary messenger cAMP synthesis at high concentrations,–,–
CC(C)C[C@H](NC(=O)[C@H](CC(N)=O)NC(=O)[C@H](CCC(=O)O)NC(=O)[C@@H](NC(=O)c1ccc2c(c1)C(=O)OC21c2ccc(O)cc2Oc2cc(O)ccc21)[C@@H](C)O)C(=O)N[C@@H](CCC(=O)O)C(=O)N1CCC[C@H]1C(=O)N[C@@H](CC(N)=O)C(=O)NCC(=O)N[C@@H](CCC(=O)O)C(=O)NCC(N)=O [BI-10^FAM] (5FAM-TENLEPNGEG-NH2),–,–,–,–,3.80,negligible physiologic effects when used in low doses
